One test concerns the target T1, BRM (Homo sapiens, UniProt P51531).
T1 construct: made in house; host or cells: High Five insect cells
The experiment in a line: ATPase catalytic activity of BRM, ADP-Glo in vitro biochemical assay. The note with it: ATPase catalytic activity, 30 nM BRM, 400 μM ATP, read-out: BRM IP50.

The next test has as its target T2, BRG-1 (Homo sapiens, UniProt P51532).
T2 construct: made in house; host or cells: High Five insect cells
In words: ATPase catalytic activity of BRG-1, ADP-Glo in vitro biochemical assay. The settings on record: ATPase catalytic activity, 30 nM BRG-1, 400 μM ATP, read-out: BRG1 IP50. On the technique in general: In ADP-Glo the light output rises with the ADP produced.

Each structure is given as a SMILES string. A value given as a limit tells only on which side of the number the result lay.

T1 sequence (P51531 whole entry): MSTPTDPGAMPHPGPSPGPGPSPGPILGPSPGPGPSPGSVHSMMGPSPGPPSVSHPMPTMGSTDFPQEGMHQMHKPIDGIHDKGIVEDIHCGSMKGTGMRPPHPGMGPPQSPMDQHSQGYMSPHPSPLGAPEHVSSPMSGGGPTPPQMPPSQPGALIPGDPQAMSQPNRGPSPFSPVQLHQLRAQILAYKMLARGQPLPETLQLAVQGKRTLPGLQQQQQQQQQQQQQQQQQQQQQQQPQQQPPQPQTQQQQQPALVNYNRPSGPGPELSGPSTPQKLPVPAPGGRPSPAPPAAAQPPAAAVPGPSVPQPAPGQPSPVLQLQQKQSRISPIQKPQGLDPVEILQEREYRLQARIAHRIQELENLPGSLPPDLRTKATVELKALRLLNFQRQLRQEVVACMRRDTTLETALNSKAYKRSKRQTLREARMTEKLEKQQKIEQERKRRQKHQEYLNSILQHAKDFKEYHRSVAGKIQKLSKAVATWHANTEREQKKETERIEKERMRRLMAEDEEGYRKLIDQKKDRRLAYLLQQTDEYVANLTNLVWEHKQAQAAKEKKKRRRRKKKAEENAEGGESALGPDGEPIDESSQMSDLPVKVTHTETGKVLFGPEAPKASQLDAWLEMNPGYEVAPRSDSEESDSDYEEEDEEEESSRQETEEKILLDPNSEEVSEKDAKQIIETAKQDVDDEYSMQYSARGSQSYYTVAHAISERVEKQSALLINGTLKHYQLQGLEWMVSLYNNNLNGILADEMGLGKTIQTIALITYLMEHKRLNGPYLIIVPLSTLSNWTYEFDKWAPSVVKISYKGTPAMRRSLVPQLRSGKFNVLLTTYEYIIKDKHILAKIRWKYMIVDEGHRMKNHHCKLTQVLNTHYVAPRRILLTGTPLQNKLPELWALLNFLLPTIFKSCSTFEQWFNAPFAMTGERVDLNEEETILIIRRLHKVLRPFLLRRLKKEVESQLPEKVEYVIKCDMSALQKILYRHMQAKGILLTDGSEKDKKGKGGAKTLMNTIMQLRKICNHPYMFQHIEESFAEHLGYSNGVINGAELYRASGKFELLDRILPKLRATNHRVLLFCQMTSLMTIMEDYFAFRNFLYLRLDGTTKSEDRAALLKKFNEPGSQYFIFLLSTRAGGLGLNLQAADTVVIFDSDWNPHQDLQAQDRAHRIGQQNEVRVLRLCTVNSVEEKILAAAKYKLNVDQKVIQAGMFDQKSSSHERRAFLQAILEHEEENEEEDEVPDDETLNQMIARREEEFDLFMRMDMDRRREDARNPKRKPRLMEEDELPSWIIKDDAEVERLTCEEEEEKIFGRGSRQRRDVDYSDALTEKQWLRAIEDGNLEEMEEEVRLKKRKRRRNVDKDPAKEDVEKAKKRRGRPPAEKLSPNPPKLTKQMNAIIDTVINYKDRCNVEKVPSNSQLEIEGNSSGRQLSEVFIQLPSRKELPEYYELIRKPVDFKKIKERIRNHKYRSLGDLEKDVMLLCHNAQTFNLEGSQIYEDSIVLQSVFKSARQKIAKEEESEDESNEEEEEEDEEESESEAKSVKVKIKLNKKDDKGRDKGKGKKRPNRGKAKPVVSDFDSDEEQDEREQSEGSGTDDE
T2 sequence (P51532 whole entry): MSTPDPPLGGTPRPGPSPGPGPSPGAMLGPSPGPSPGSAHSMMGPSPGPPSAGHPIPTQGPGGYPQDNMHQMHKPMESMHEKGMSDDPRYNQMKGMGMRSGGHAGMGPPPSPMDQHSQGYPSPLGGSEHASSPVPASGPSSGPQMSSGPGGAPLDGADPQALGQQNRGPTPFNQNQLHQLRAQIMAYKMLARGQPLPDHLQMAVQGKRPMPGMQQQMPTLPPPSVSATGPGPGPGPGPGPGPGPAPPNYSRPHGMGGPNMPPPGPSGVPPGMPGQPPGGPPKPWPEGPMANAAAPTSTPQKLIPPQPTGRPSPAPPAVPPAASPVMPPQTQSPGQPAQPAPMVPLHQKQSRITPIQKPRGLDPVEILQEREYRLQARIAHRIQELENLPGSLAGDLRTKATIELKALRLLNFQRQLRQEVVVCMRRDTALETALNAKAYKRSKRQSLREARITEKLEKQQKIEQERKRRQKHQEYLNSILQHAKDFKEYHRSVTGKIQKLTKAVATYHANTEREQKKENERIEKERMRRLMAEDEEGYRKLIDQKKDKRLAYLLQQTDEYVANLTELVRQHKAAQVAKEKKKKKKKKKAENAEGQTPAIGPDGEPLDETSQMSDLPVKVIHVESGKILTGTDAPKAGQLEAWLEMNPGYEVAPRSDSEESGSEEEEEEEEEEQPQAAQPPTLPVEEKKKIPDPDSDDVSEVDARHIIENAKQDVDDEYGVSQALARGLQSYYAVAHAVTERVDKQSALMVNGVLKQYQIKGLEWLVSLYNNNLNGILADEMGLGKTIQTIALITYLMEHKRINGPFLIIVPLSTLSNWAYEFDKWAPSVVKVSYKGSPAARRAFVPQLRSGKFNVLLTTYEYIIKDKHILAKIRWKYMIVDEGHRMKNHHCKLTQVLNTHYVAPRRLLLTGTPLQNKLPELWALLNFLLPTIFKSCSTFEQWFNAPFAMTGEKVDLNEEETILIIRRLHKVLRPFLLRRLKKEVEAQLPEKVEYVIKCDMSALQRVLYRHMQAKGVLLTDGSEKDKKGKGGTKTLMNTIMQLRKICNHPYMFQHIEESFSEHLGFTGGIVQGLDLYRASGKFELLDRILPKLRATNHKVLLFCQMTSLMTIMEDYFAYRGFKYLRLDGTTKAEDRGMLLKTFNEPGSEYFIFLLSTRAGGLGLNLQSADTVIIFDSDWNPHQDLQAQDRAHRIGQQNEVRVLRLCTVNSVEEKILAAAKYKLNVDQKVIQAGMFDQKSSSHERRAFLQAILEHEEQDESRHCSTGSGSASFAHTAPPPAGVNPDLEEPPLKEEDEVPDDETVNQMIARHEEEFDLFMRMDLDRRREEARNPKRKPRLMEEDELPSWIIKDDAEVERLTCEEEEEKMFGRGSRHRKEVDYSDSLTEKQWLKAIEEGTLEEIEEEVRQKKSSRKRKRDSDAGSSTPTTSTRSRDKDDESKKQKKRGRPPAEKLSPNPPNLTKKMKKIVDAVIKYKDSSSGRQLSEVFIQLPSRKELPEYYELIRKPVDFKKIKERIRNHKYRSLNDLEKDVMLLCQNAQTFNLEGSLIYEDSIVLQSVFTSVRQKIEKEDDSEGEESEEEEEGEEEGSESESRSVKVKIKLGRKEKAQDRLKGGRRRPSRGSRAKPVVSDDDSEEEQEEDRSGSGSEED

For `Cc1cc(-c2cccc(-c3csc(NC(=O)CNC(=O)c4ccn(C(C)(C)C)c4)n3)c2)no1` [Compound 425], the IC50 on BRM and on BRG-1 was over 10 nM in each case.
For `CC(C)(O)C#Cc1cccc(-c2csc(NC(=O)CNC(=O)c3ccn(S(C)(=O)=O)c3)n2)c1` [Compound 426], the IC50 at BRM and on BRG-1 was over 10 nM throughout.
As to `COCC1CN(c2cccc(-c3csc(NC(=O)CNC(=O)c4ccn(S(C)(=O)=O)c4)n3)c2)C1` [Compound 427], the IC50 at BRM and on BRG-1 was over 10 nM each time.
As for `COC[C@H](NC(=O)c1ccn(S(C)(=O)=O)c1)C(=O)Nc1nc(-c2ccc3ccn(C)c(=O)c3c2)cs1` [Compound 430], the IC50 on BRM and at BRG-1 was under 10 nM in each case.
As for `CC(C)(C)n1ccc(C(=O)NCC(=O)Nc2nc(-c3cccc(C4CCCCO4)c3)cs2)c1` (stereo not shown) [Compound 432], the IC50 on BRM and on BRG-1 was over 10 nM throughout.
For the compound `CN1CCn2nc(-c3cccc(-c4csc(NC(=O)CNC(=O)c5ccn(S(C)(=O)=O)c5)n4)c3)cc2C1=O` [Compound 433], the IC50 on BRM and on BRG-1 was over 10 nM in each case.
As to `CC(C)(N)Cn1ccc(-c2cccc(-c3csc(NC(=O)CNC(=O)c4ccn(C(C)(C)C)c4)n3)c2)n1` [Compound 434], the IC50 at BRM and on BRG-1 was over 10 nM in each case.
For the compound `CNC(=O)C1(c2cc(-c3cccc(-c4csc(NC(=O)CNC(=O)c5ccn(S(C)(=O)=O)c5)n4)c3)ccn2)CC1` [Compound 435], the IC50 at BRM and at BRG-1 was under 10 nM in each case.
For `COC[C@H](NC(=O)c1ccn(S(C)(=O)=O)c1)C(=O)Nc1nc(-c2cccc(-c3cc(C)no3)c2)cs1` [Compound 436], the IC50 on BRM and at BRG-1 was over 10 nM each time.
On to `CN1CCn2nc(-c3cccc(-c4csc(NC(=O)CNC(=O)c5ccn(C(C)(C)C)c5)n4)c3)cc2C1=O` [Compound 437], for which the IC50 at BRM and at BRG-1 was over 100 nM each time.
As to `COC[C@H](NC(=O)c1ccn(S(C)(=O)=O)c1)C(=O)Nc1nc(-c2cccc(-c3ccnc(Cl)c3)c2)cs1` [Compound 438], the IC50 on BRM and at BRG-1 was under 10 nM in each case.
`CN(C)C(=O)C1(c2cc(-c3cccc(-c4csc(NC(=O)CNC(=O)c5ccn(S(C)(=O)=O)c5)n4)c3)ccn2)CC1` [Compound 439]: the IC50 at BRM and on BRG-1 was under 10 nM throughout.
For the compound `CC(C)(C)n1ccc(C(=O)NCC(=O)Nc2nc(-c3cccc(N4CCN(C5COC5)CC4)n3)cs2)c1` [Compound 440], the IC50 at BRM and on BRG-1 was over 10 nM throughout.
As to `CC(=O)NCCOc1cc(-c2cccc(-c3csc(NC(=O)CNC(=O)c4ccn(S(C)(=O)=O)c4)n3)c2)ccn1` [Compound 441], the IC50 on BRM and on BRG-1 was under 10 nM throughout.
Turning to `CS(=O)(=O)n1ccc(C(=O)NCC(=O)Nc2nc(-c3cccc(-c4ccnc(OCCN)c4)c3)cs2)c1` [Compound 442], the IC50 on BRM and on BRG-1 was under 10 nM in each case.
As to `COC[C@H](NC(=O)c1ccn(S(C)(=O)=O)c1)C(=O)Nc1nc(-c2cccc(-c3ccnc(OC)c3)c2)cs1` [Compound 443], the IC50 on BRM was under 10 nM; at BRG-1, over 10 nM.
Regarding `COC[C@@H](NC(=O)c1ccn(S(C)(=O)=O)c1)C(=O)Nc1nc(-c2cccc(-c3ccnc(OC)c3)c2)cs1` [Compound 444], the IC50 at BRM and at BRG-1 was over 100 nM in each case.
Regarding `CS(=O)(=O)n1ccc(C(=O)NCC(=O)Nc2nc(-c3cccc(N4CC5CCC(C4)O5)c3)cs2)c1` [Compound 445], the IC50 on BRM is over 10 nM; at BRG-1 it was over 100 nM.
On the same counts, the results for `Cn1cc2c(n1)CCN(c1cccc(-c3csc(NC(=O)CNC(=O)c4ccn(S(C)(=O)=O)c4)n3)c1)C2` [Compound 446] are over 10 nM and over 10 nM.
For `Cn1cc(-c2cccc(-c3csc(NC(=O)CNC(=O)c4ccn(S(C)(=O)=O)c4)n3)c2)nn1` [Compound 447], in that order: over 10 nM and over 10 nM.
